Results as given in patent US20220112149A1, “DRUG DESIGN METHOD ASSOCIATED WITH NATURAL PRODUCTS, PENTACYCLIC TRITERPENOID COMPOUND, PREPARATION METHOD AND APPLICATIONS THEREOF” (Huazhong Agricultural University, priority 2020, published 2022).

Assays:
normal rats = details: cited from earlier work
[1] = test system: mice with hereditary diabetes; details: cited from earlier work
[2] = test system: ICAM-1 expression in HMEC-1 cells; test: LPS-induced ICAM-1 expression in HMEC-1 cells, flow cytometry; assay type: cell-based, human
Procedure: (3) Screening candidate molecules with the strongest ICAM-1 inhibitory activity by simulating the physiological model of inflammation that human microvascular endothelial cells (HMEC-1) expressing cell adhesion molecules (ICAM-1) mediate lymphocytes to penetrate blood vessels to infiltrate the damaged tissues. The specific steps are as follows:
(§1) 1) Culture of HMEC-1 cells: HMEC-1 cells are cultured in MCDB131 medium (U.S. Sigma) that contain 10% fetal bovine serum (FBS, Zhejiang Tianhang Biotechnology Co., Ltd.), double antibody (100 U/mL penicillin and 100 μg/mL streptomycin), 1 μg/mL hydrocortisone (Sangon Biotech (Shanghai) Co., Ltd.) and 10 ng/mL human recombinant growth factor (hEGF, Sangon Biotech (Shanghai) Co., Ltd.) at 37° C., 5% CO2, and 100% RH.
2) HMEC-1 cells are inoculated into a 24-well plate, and cultured in a cell incubator at 37° C., 5% CO2, and 100% RH. When the cells grow to 80% abundance, different concentrations of drugs are added for 3 h (1 μM Celastrol as a positive control drug). At the end of treatment, 1 μg/mL LPS is added to activate the NF-κB signaling pathway for 12 hours. After activation, the supernatant medium is discarded, and washed three times with PBS, and 100 μL of 0.25% pancreatin (containing 0.5 mM EDTA) is added to digest in a 37° C. incubator for 3 min. When most of cells are shed, 150 μL of MCDB131 complete medium is added to terminate the digestion, shaken for 3 min, then cells are transferred to a V-shaped 96-well plate (Corning), centrifuged at 4° C., 3000 rpm for 3 min to precipitate cells. Then the supernatant medium is discarded, 100 μL of pH=7.4 buffer A (PBS+0.5% BSA+1 mM MgCl2) is added to each well, to wash once, centrifuged at 4° C., 3000 rpm for 3 min, and the buffer A is aspirated. To each well, 100 μL of PBS solution containing 5% bovine serum albumin is added, and shaken and blocked at 120 rpm for 30 min at room temperature; after blocking, centrifuged at 4° C. and 2000 rpm for 3 min, and the supernatant is discarded, 20 μl of buffer A containing 5 μg/mL of primary antibody anti-ICAM-1 antibody LB-2, shaken and incubated at room temperature at 120 rpm for 1 h, using the buffer A without adding anti-ICAM-1 antibody LB-2 as the negative control. By detecting anti-ICAM-1 fluorescence value by flow cytometry, the expression of ICAM-1 protein in HMEC-1 cells is detected indirectly. Three duplicate wells are established for each concentration. PBS is set as a blank control, 1 uM of Celastrol is set as a positive control, to analyze the inhibitory effect of different concentrations of drugs on the expression level of ICAM-1.
as §1, with “U/ml” for “U/mL”, “μg/ml” for “μg/mL”, “Biotech)” for “Biotech (Shanghai) Co., Ltd.)”, “ng/ml” for “ng/mL”
HMEC-1 cells are inoculated into a 24-well plate, and cultured in a cell incubator at 37° C., 5% CO2, and 100% RH. When the cells grow to 80% abundance, different concentrations of drugs are added for 3 h (1 μM Celastrol as a positive control drug). At the end of treatment, 1 μg/mL LPS is added to activate the NF-κB signaling pathway for 12 hours. After activation, the supernatant medium is discarded, and washed three times with PBS, and 100 μL of 0.25% pancreatin (containing 0.5 mM EDTA) is added to digest in a 37° C. incubator for 3 min. When most of cells are shed, 150 μL of MCDB131 complete medium is added to terminate the digestion, shaken for 3 min, then cells are transferred to a V-shaped 96-well plate (Corning), centrifuged at 4° C., 3000 rpm for 3 min to precipitate cells. Then the supernatant medium is discarded, 100 μL of pH=7.4 buffer A (PBS+0.5% BSA+1 mM MgCl2) is added to each well, to wash once, centrifuged at 4° C., 3000 rpm for 3 min, and the buffer A is aspirated. […]

[3] = test system: NF-κB signaling in HEK293 cells; test: NF-κB luciferase reporter gene system; assay type: cell-based; details: Homo sapiens, HEK293, read-out: inhibition of the fluorescence signal (NF-κB luciferase reporter)
Procedure: FIGS. 10A-10C show the inhibition verification effect chart of GA-02 in Example 5, where FIG. 10A: GA-02 inhibited LPS-induced ICAM-1 expression activity. The inflammatory pathway of HMEC-1 cell was activated by 1 μg/mL LPS, to determine the effect of Celastrol and GA-02 on the expression of ICAM-1 induced by LPS. FIG. 10B: The effect of GA-02 on NF-κB signaling. The NF-κB luciferase reporter plasmid was used to transfect HEK293 cells, and the effects of Celastrol and GA-02 on the NF-κB activity induced by TNF-α were determined; FIG. 10C: qRT-PCR was used to detect mRNA relative expressions of IL-1β, TNF-α, IL-6 and MCP-1.
ICAM-1 is a downstream effector molecule regulated by NF-κB signaling pathway, and NF-κB plays an important role in regulating the expression of ICAM-1 gene. Celastrol can inhibit the activation of the LPS-induced IKK/NF-κB signaling pathway. In order to validate that GA-02 functions through the IKK/NF-κB signaling pathway, we constructed an NF-κB luciferase reporter gene system to validate the inhibitory activity of Celastrol and GA-02 on the luciferase reporter gene. […] In addition, both Celastrol and GA-02 could down-regulate the mRNA transcription levels of inflammatory factors IL-1β, TNF-α, IL-6 and MCP-1 activated by LPS.

mice = details: cited from earlier work
[4] = in vivo; cited from earlier work
mildly obese mice = test: GA-03 in mildly obese mouse model, intraperitoneal; assay type: in vivo, C57BL/6 mice; details: intraperitoneal injection
Procedure: Animals are fed with common diets (purchased) for 14 consecutive weeks. […] When the body weight is greater than 30 g, the administration is started. […] The injection volume is 25 μL per day.

lean mice = details: mouse, in vivo, ip
Procedure: Six-week-old SPF-grade C57BL/6 mice (purchased from Hubei Provincial Center for Disease Control and Prevention) are fed in SPF animal house at a room temperature of 22° C., 4 mice per cage. Animals are fed with common diets (purchased) for 2 consecutive weeks. Mice are free to take food and the padding is changed every two days, and the body weights and blood glucose are monitored every week. When the body weight is greater than 22 g, the administration is started. The drug is dissolved in DMSO solvent and administered by intraperitoneal injection. The injection volume is 25 μL per day. In addition, a vehicle and positive drug control are established. The food intake and body weight changes of mice in each group are measured every day. On Days 1 and 21, the blood routine and blood biochemical parameters are monitored. At the same time, the glucose tolerance test (GTT) and insulin tolerance test (ITT) are carried out.

[5] = test system: high-fat-induced obese mice; test: GA-03 in high-fat-induced obese mouse model, intraperitoneal; assay type: in vivo, C57BL/6 mice
Procedure: Animals are fed with 60% calorie high-fat diets (purchased from Bio-medicine) for 14 consecutive weeks. […] When the blood glucose is greater than 11 mmol/L and the body weight is greater than 42 g, the administration is started. […] The injection volume is […]. In addition, a vehicle (25 μL DMSO) is established. […] Mice in the blank group and GA-02 treatment group underwent pathological anatomy, to observe the changes in organs before and after administration. Samples are taken to prepare pathological sections.
The model is constructed by feeding high-fat diets to C57BL/6 male mice for 14 weeks, as shown in FIGS. 22A-22D, obese model mice with a body weight greater than 42 g and blood glucose level higher than 11 mmol/L. Model mice are grouped by blood glucose and body weight. […]

[6] = high-dose (8 mg/kg) i.p., second day
[7] = high-dose (8 mg/kg) i.p., third day
[8] = low-, medium- and high-dose (2, 4, 8 mg/kg) i.p.

## C[C@H]1[C@H](C)CC[C@]2(C(=O)O)CC[C@]3(C)C(=CC[C@@H]4[C@@]5(C)C[C@@H](O)[C@H](O)C(C)(C)[C@@H]5CC[C@]43C)[C@H]12 [corosolic acid]
Normal rats
  blood glucose lowering: significant effect of lowering blood glucose
[1]
  blood glucose lowering: significant effect of lowering blood glucose

## CC1(C)[C@@H](O)CC[C@]2(C)[C@H]3C(=O)C=C4[C@@H]5C[C@@](C)(C(=O)O)CC[C@]5(C)CC[C@@]4(C)[C@]3(C)CC[C@@H]12 [18-β-glycyrrhetinic acid, reference compound]
[2]; HMEC-1, 1 μg/mL LPS, FIG. 3
  ICAM-1 inhibitory activity among the candidate triterpene natural products: best ICAM-1 inhibitory activity

## CC1=C(O)C(=O)C=C2C1=CC=C1[C@@]2(C)CC[C@@]2(C)[C@@H]3C[C@](C)(C(=O)O)CC[C@]3(C)CC[C@]12C [Celastrol]
[3]
  inhibition at 1 µM: 70%
mice; dose of 1 mg/kg
  toxicity to the brains, hearts and livers: serious toxicity
mice; dose of 4 mg/kg
  lethality rate: 40%
[4]
  bioavailability: 17.06%

## 11-dicarbonyl-12-ene-2α,3β-dihydroxy-oleanane [GA-03]
Mildly obese mice
  effect on appetite suppression and weight reduction: obvious effect
[2]
  anti-inflammatory activity compared with reference compounds: basically equivalent to that of GA-02 and superior to 18β-glycyrrhetinic acid
Lean mice
  effect on the food intake and body weight: no effect
[5]; high dose 8 mg/kg i.p., three weeks
  body weight reduced by: 33.80±2.95%
[5]; high dose 8 mg/kg i.p., from 47.49±0.97 g
  body weight after three weeks of administration: 31.45 ± 1.81 g
[5]; high-dose (8 mg/kg) i.p.
  liver function indexes AST and ALT vs vehicle control group: significantly lower
[5]; high-dose (8 mg/kg) i.p., first day of administration, day 0: 3.14±0.40 g
  average daily food intake: 0.65 ± 0.02 g
[5]; high-dose (8 mg/kg) i.p., first day, from 47.49±0.97 g
  body weight: 46.18 ± 0.95 g
[5]; [6]
  average daily food intake: 0.57 ± 0.01 g
  body weight: 44.74 ± 0.76 g
[5]; [7]
  average daily food intake: 0.66 ± 0.06 g
  body weight: 43.13 ± 0.65 g
[5]; high-dose (8 mg/kg) i.p., three weeks
  lipid droplets in the liver (oil red O and H&E staining): completely disappeared
[5]; intraperitoneal injection, obese mice
  effect on appetite suppression and weight reduction: strong effect
[5]; low dose 2 mg/kg i.p., three weeks
  body weight reduced by: 20.40±1.89%
[5]; low dose 2 mg/kg i.p., from 47.11±1.32 g
  body weight after three weeks of administration: 37.49 ± 1.28 g
[5]; [8]
  fasting blood glucose levels: reduce to a normal level
  weights of liver and epididymal fat compared to the vehicle control group: decrease in a dose-dependent manner
[5]; low-, medium- and high-dose groups, i.p.
  blood glucose tolerance (GTT) and insulin tolerance (ITT): significantly improved
[5]; medium dose 4 mg/kg i.p., three weeks
  body weight reduced by: 27.63±3.39%
[5]; medium dose 4 mg/kg i.p., from 46.94±1.41 g
  body weight after three weeks of administration: 33.99 ± 2.30 g
